Test results: US6867208B2, “Vitronectin receptor antagonists, their preparation and their use” (Hoechst Aktiengesellschaft, priority 1996, dated 2005)

In the case of `N=C(N)NC(=O)CCCn1nc2ccc(C(=O)NCC(NC(=O)OCc3ccccc3)C(=O)O)cn2c1=O` (stereo not shown) [Example 6, 3-[2-(3-Guanidinocarbonyl-1-propyl)-2,3-dihydro-3-oxo-[1,2,4]triazolo[4,3-a]pyridin-6-carbonylamino]-2-[(phenylmethoxy)carbonylamino]propanoic acid], the melting point is reported as 190 °C (dec.).
